In brackets after ≈: the same amount, converted by molar mass.
Tests used:
[1] = target: neutrophil elastase in human plasma (Homo sapiens (Human), UniProt P08246); assay: Neutrophil elastase inhibitory activity in human plasma; type: biochemical; details: human plasma assay (zymosan-stimulated blood plasma), substrate 250 μM, pH 7.5
cytochrome P450 2C19 = cytochrome P450 2C19 (Homo sapiens (Human), UniProt P33261); assay: Cytochrome P450 2C19 inhibition; type: in vitro ADME; details: human liver microsomes, (S)-Mephenytoin hydroxylation, 37° C.
Chain of cytochrome P450 2C19 (P33261 whole entry): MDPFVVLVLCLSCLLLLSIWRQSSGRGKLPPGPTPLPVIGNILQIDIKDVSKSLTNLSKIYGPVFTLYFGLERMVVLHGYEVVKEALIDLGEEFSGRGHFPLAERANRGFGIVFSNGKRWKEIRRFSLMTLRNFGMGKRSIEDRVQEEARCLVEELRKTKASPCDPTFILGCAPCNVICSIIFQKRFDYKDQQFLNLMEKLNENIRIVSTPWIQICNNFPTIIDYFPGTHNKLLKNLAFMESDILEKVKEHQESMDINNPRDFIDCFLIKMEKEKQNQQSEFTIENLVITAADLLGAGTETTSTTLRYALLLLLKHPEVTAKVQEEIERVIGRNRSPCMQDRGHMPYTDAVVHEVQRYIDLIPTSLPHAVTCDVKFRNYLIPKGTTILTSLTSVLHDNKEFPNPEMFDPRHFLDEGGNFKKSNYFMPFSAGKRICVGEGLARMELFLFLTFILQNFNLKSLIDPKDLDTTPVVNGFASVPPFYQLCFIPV
From the text: Assay for Determination of Cytochrome P450 2C19 Inhibition

[2] = Aqueous solubility (High Throughput Method); type: physicochemical; details: McIlvaine buffer pH 6.8, 2.5% DMSO, 24 h shaking; for solubility at 24 h: McIlvaine buffer pH 6.8 with 2.5% DMSO, aqueous buffer, kinetic from dmso stock
Procedure: Assay for Determination of Aqueous Solubility (“High Throughput Method”)
Starting from a 10 mM DMSO stock solution, aliquots are diluted with acetonitrile/water (1/1) and McIlvaine buffer pH 6.8, respectively. After 24 h of shaking, the solutions or suspensions are filtered and analyzed by LC-UV. The amount dissolved in buffer is compared to the amount dissolved in the acetonitrile/water (1/1) solution. Solubility is measured from 0.001 to 0.125 mg/ml at a DMSO concentration of 2.5%. If more than 90% of the compound is dissolved in buffer, the value is marked with “>”.

[3] = Metabolic stability with human liver microsomes; type: in vitro ADME; details: pH 7.6; pooled human liver microsomes, 37° C., 1 μM test compound, 1 mg/ml microsomal protein, NADPH; read-out: t1/2 INVITRO
[4] = Aqueous solubility (Shaked Flask Method); type: physicochemical; details: aqueous buffer, thermodynamic from solid, pH 6.8 (McIlvaine buffer)
Procedure: Assay for Determination of Aqueous Solubility (“Shaked Flask Method”)
Saturated solutions are prepared in well plates by adding an appropriate volume of selected aqueous media (typically in the range of 0.25-1.5 ml) into each well which contains a known quantity of solid drug substance (typically in the range 0.5-5.0 mg). The wells are shaken or stirred for a predefined time period (typically in a range of 2-24 h) and then filtered using appropriate filter membranes (typically PTFE-filters with 0.45 μm pore size). Filter absorption is avoided by discarding the first few drops of filtrate. The amount of dissolved drug substance is determined by UV spectroscopy or by HPLC with UV-detection. In addition, the pH of the aqueous saturated solution is measured using a glass-electrode pH meter.

[5] = Drug transport across human Caco-2 cells; type: in vitro ADME; details: human, Caco-2 monolayers, pH 7.2, 37° C.; for Papp A→B at 10 µM: apical-to-basal, read-out: PEAB; for Papp B→A at 10 µM: basal-to-apical, read-out: PEBA
From the text: (§1) Assay for Determination of Drug Transport Across Human Caco-2 Cells
(§2) The assay provides information on the potential of a compound to pass the cell membrane, on the extent of oral absorption as well as on whether the compound is actively transported by uptake and/or efflux transporters. For the measurement of permeability across polarized, confluent human cancer colon carcinoma cells 2 (Caco-2) cell monolayers grown on permeable filter supports are used as the in vitro absorption model.
(§3) Apparent permeability coefficients (PE) of the compounds across the Caco-2 monolayers are measured (pH 7.2, 37° C.) in apical-to-basal (AB) (absorptive) and basal-to-apical (BA) (secretory) transport direction. AB permeability (PEAB) represents drug absorption from the intestine into the blood and BA permeability (PEBA) drug secretion from the blood back into the intestine via both passive permeability as well as active transport mechanisms mediated by efflux and uptake transporters that are expressed on the Caco-2 cells. The compounds are assigned to permeability/absorption classes by comparison of the AB permeabilities with the AB permeabilities of reference compounds with known in vitro permeability and oral absorption in the human. Identical or similar permeabilities in both transport directions indicate passive permeation, vectorial permeability points to additional active transport mechanisms. […] Active transport is concentration-dependently saturable.
(§4) Caco-2 cells (1-2*10^5 cells/cm^2 area) are seeded on filter inserts (Costar transwell polycarbonate or PET filters, 0.4 μm pore size) and cultured (DMEM) for 10 to 25 days. Compounds are dissolved in appropriate solvent (like DMSO, 1-20 mM stock solutions). Stock solutions are diluted with HTP-4 buffer (128.13 mM NaCl, 5.36 mM KCl, 1 mM MgSO4, 1.8 mM CaCl2, 4.17 mM NaHCO3, 1.19 mM Na2HPO4×7H2O, 0.41 mM NaH2PO4×H2O, 15 mM HEPES, 20 mM glucose, pH 7.2) to prepare the transport solutions (typically 10 μM compound, final DMSO<=0.5%). The transport solution (TL) is applied to the apical or basolateral donor side for measuring A-B or B-A permeability (3 filter replicates), respectively. The receiver side contains HTP-4 buffer supplemented with 2% BSA. Samples are collected at the start and end of experiment from the donor and at various time intervals for up to 2 hours also from the receiver side for concentration measurement by LC-MS/MS or scintillation counting. Sampled receiver volumes are replaced with fresh receiver solution.
(§5) The apparent permeability coefficients (PEAB and PEBA) of selected compounds in the Caco-2 drug transport assay described above are listed in Table 9.

cytochrome P450 2C8 = cytochrome P450 2C8 (Homo sapiens (Human), UniProt P10632); assay: Cytochrome P450 2C8 inhibition; type: in vitro ADME; details: human liver microsomes, Amodiaquine deethylation, 37° C.
Chain of cytochrome P450 2C8 (P10632 whole entry): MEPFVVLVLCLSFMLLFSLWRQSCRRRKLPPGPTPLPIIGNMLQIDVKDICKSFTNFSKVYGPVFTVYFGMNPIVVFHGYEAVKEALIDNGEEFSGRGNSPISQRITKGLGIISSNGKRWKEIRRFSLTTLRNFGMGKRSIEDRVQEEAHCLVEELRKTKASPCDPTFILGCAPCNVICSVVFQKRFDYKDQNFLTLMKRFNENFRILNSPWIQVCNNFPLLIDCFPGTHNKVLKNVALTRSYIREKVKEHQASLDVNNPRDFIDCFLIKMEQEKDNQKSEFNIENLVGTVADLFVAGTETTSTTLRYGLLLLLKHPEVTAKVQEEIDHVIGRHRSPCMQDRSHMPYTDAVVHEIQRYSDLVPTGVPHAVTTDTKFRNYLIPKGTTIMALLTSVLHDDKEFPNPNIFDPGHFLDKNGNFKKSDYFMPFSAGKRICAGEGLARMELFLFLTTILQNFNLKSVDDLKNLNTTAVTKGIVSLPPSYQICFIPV
From the text: Assay for Determination of Cytochrome P450 2C8 Inhibition

cytochrome P450 2C9 = cytochrome P450 2C9 (Homo sapiens (Human), UniProt P11712); assay: Cytochrome P450 2C9 inhibition; type: in vitro ADME; details: human liver microsomes, Diclofenac hydroxylation, 37° C.
Chain of cytochrome P450 2C9 (P11712 whole entry): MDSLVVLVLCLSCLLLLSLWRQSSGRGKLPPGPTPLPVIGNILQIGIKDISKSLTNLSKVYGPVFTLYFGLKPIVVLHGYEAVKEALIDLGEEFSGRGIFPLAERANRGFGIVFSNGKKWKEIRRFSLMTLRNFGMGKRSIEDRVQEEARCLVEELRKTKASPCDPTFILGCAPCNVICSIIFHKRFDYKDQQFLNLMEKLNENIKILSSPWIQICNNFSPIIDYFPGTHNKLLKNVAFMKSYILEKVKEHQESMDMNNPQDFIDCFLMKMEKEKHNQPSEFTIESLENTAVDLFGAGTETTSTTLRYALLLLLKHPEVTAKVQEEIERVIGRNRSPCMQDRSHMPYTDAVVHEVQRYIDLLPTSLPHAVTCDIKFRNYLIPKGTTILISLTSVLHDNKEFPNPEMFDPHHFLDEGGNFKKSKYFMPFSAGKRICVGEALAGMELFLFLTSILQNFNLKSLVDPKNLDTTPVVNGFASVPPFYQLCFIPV
From the text: Assay for Determination of Cytochrome P450 2C9 Inhibition

[6] = target: Human neutrophil elastase (Homo sapiens (Human), UniProt P08246); assay: Human Neutrophil Elastase Assay; type: biochemical; details: substrate MeOSuc-Ala-Ala-Pro-Val-AMC 250 μM, pH 7.5, room temperature
Chain of Human neutrophil elastase (P08246 30-247): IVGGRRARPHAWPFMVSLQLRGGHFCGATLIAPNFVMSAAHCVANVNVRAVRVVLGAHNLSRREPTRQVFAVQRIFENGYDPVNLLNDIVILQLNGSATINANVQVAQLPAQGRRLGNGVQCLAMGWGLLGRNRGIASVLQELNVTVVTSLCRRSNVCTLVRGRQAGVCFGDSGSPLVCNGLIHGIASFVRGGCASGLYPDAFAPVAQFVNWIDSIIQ

[7] = Metabolic stability with human hepatocytes; type: in vitro ADME; details: human hepatocyte suspension (typically cryopreserved), 1 μM test compound, six hours, scaled with well stirred model
Procedure: Assay for the Determination of Metabolic Stability with Human Hepatocytes
The metabolic degradation of the test compound is assayed in a human hepatocyte suspension. Human hepatocytes (typically cryopreserved) are incubated in an appropriate buffer system (e.g. Dulbecco's modified eagle medium plus 3.5 μg glucagon/500 mL, 2.5 mg insulin/500 mL and 3.75 mg/500 mL hydrocortison) containing 5% species serum. Following a (typically) 30 min preincubation in an incubator (37° C., 10% CO2), 5 μl of test compound solution (80 μM; from 2 mM stock solution in DMSO diluted 1:25 with medium) are added into 395 μl hepatocyte suspension (cell density in the range 0.25-5*10^6 cells/mL, typically 1*10^6 cells/mL; final concentration of test compound 1 μM, final DMSO concentration 0.05%). The cells are incubated for six hours (incubator, orbital shaker) and samples (25 μl) are taken at 0, 0.5, 1, 2, 4 and 6 hours. Samples are transferred into acetonitrile and pelleted by centrifugation (5 min) The supernatant is transferred to a new 96-deepwell plate, evaporated under nitrogen and resuspended. The decline of parent compound is analyzed by LC-MS/MS.
The intrinsic clearance CL_[…] is calculated as follows: CL_[…]=Dose/AUC=(C0/CD)/(AUD+clast/k)*1′000/60 (C0: initial concentration in the incubation [μM], CD: cell density of vital cells [10^6 cells/mL], AUD: area under the data [μM*h], clast: concentration of last data point [μM], k: slope of the regression line for parent decline [h^−1])
The calculated in vitro hepatic intrinsic clearance can be scaled up to the intrinsic in vivo hepatic clearance and used to predict hepatic in vivo blood clearance (CL) by the use of a liver model (well stirred model): CL_[…]_INVIVO [ml/min/kg]=(CL_[…] [μL/min/10^6 cells]*hepatocellularity [10^6 cells/g liver]*liver factor [g/kg bodyweight])/1′000 CL [ml/min/kg]=CL_[…]_INVIVO [ml/min/kg]*hepatic blood flow [ml/min/kg]/(CL_[…]_INVIVO [ml/min/kg]+hepatic blood flow [ml/min/kg]) Qh [%]=CL [ml/min/kg]/hepatic blood flow [ml/min/kg]) (Hepatocellularity, human: 120*10^6 cells/g liver; liver factor, human: 25.7 g/kg bodyweight; blood flow, human: 21 ml/(min*kg))

Caco-2 cells = assay: Drug transport across human Caco-2 cells; type: in vitro ADME; details: Caco-2 monolayers, pH 7.2, 37° C.; for PEAB: apical-to-basal; for PEBA: basal-to-apical
From the text: as §1, §2, §3, §4, §5

Chain of neutrophil elastase in human plasma (P08246 30-247): as above

IC50 [1] [nM] | IC50 (cytochrome P450 2C19) [nM] | solubility at 24 h [2] [µg/mL] | half-life at 1 μM [3] [h] | solubility [4] [µg/mL] | Papp A→B at 10 µM [5] [×10⁻⁶ cm/s] | Papp B→A at 10 µM [5] [×10⁻⁶ cm/s] | IC50 (cytochrome P450 2C8) [nM] | IC50 (cytochrome P450 2C9) [nM] | IC50 [6] [nM] | CLhep predicted at 1 μM [7] [mL/min/kg] | Aqueous solubility [2] [µg/mL] | PEAB (Caco-2 cells) [×10⁻⁶ cm/s] | PEBA (Caco-2 cells) [×10⁻⁶ cm/s] | SMILES
1.6 | > 50000 | – | – | – | 11 | 79 | > 50000 | > 50000 | < 1 | 4 | – | – | – | CN1C(=O)N(c2cccc(C(F)(F)F)c2)C2=C(C(=O)NCC2)C1c1ccc(C#N)cc1-c1cccnc1 (stereo not drawn) [Example 34, 4-{3-Methyl-2,5-dioxo-1-[3-(trifluoromethyl)phenyl]-1H,2H,3H,4H,5H,6H,7H,8H-pyrido[4,3-d]pyrimidin-4-yl}-3-(pyridin-3-yl)benzonitrile]
1.8 | – | – | – | – | – | – | – | – | 1.3 | – | 70 | 25 | 150 | CN1CCC2=C(C1=O)C(c1ccc(C#N)cc1-c1ccncc1)N(C)C(=O)N2c1cccc(C(F)(F)F)c1 (stereo not drawn) [Example 36.2]
1.4 | – | – | – | – | – | – | – | – | 1.1 | – | 76 | 12 | 110 | CN1CCC2=C(C1=O)C(c1ccc(C#N)cc1-c1cncnc1)N(C)C(=O)N2c1cccc(C(F)(F)F)c1 (stereo not drawn) [Example 36.3]

Second part, the compound before the results:

SMILES | IC50 [1] [nM] | IC50 (cytochrome P450 2C19) [nM] | solubility at 24 h [2] [µg/mL] | half-life at 1 μM [3] [h] | solubility [4] [µg/mL] | Papp A→B at 10 µM [5] [×10⁻⁶ cm/s] | Papp B→A at 10 µM [5] [×10⁻⁶ cm/s] | IC50 (cytochrome P450 2C8) [nM] | IC50 (cytochrome P450 2C9) [nM] | IC50 [6] [nM] | CLhep predicted at 1 μM [7] [mL/min/kg] | Aqueous solubility [2] [µg/mL] | PEAB (Caco-2 cells) [×10⁻⁶ cm/s] | PEBA (Caco-2 cells) [×10⁻⁶ cm/s]
N#Cc1ccc([C@H]2NC(=O)N(c3cccc(C(F)(F)F)c3)C3=C2C(=O)NCC3)cc1 [Example 1A, (R)-4-(2,5-Dioxo-1-(3-(trifluoromethyl)phenyl)-1,2,3,4,5,6,7,8-octahydropyrido[4,3-d]-pyrimidin-4-yl)benzonitrile] | 3.4 | > 50000 | > 100 | > 2.17 | ≥ 10 | 6.6 | 44 | > 50000 | > 50000 | 3.1 | – | – | – | –
CN1C(=O)N(c2cccc(C(F)(F)F)c2)C2=C(C(=O)NCC2)[C@H]1c1ccc(C#N)cc1-c1cnn(C)c1 [Example 31A, 3-(1-Methyl-1H-pyrazol-4-yl)-4-[(4R)-3-methyl-2,5-dioxo-1-[3-(trifluoromethyl)-phenyl]-1H,2H,3H,4H,5H,6H,7H,8H-pyrido[4,3-d]pyrimidin-4-yl]benzonitrile] | < 1 | > 50000 | 11 (≈ 21.7 µM) | > 2.17 | ≥ 10 | 12 | 100 | > 50000 | > 50000 | < 1 | 3 | – | – | –
